Reference: US12038432B2, “Organoids related to immunotherapy and methods of preparing and using the same” (Wake Forest University Health Sciences, priority 2018, dated 2024)
“Also recorded” adds a separate entry of the source.

Legend:
[1] = tested on: PTOs derived from a melanoma patient (Non-Responder); test: LIVE/DEAD imaging of tumor organoids derived from a non-responder melanoma patient; type: cell-based, human; conditions: FIG. 1C
Description: (§1) Drug screen output metrics: Drugs will be administered for 48 hours, after which efficacy will be determined as follows; specifically, viability of cells will be assessed by (LIVE/DEAD), number of viable cells alone, number of viable cells versus dead cells, mitochondrial metabolism (MTS), LDH quantification (positive in tumor cells), and IHC (colocalization of fluorescently labeled immune cells with apoptotic, proliferative, and tumor cell markers).

melanoma = test: Clinical response of melanoma patients to treatment; type: in vivo, human; conditions: stage III and IV melanoma patients of Example 7
melanoma tumor organoid = test: Drug screen, cell viability of melanoma tumor organoid with or without lymph node cells (FIG. 5); type: cell-based, human; conditions: decrease observed only when the organoid included both tumor cells and lymph node cells
Description: Organoid-device integration: HA and gelatin/collagen components are mixed with cells, as well as a crosslinker and photoinitiator for photopolymerization in situ. Cells are added to the gel precursor preferably at a density of 20 million cells/mL or higher, after which the cell-gel mixture introduced to the microfluidic chambers sequentially and patterning is accomplished using a positive-tone photomask to define shape and location of constructs (FIG. 3B). For the proposed studies, each device will contain series of 2 chamber circuits in which one chamber will be formed a tumor organoid and in the other will be formed a lymph node organoid. Alternatively, both organoids can exist separately, but in the same chamber (FIG. 2). In another form factor, tumor cells and immune cells can be photopatterned into the device as adjacent regions, in which for the immune cells to successfully target the tumor cells, they are forced to recognize tumor cell antigens, activate, and migrate to the tumor region. (FIGS. 4A-4C). […]
Drug screen output metrics: Drug efficacy will be determined by: viability of cells (LIVE/DEAD), number of viable cells alone, number of viable cells versus dead cells, mitochondrial metabolism (MTS), LDH quantification (positive in tumor cells), and IHC (Annexin V vs. KI67-apoptotic vs. proliferative markers).

PTOs = test: Exposure of patient tumor organoids (PTOs) to immune checkpoint inhibitors, tolerance; type: cell-based; conditions: ~100 nM concentrations; unless immune cells are activated
Excerpt: Potential immune checkpoint inhibitor treatment. […] Concentrations of these two widely-used PD-1 inhibitors and one widely-used CTLA-4 inhibitor will be derived from clinical treatment guidelines and scaled to the volume of the PTO.

[2] = tested on: 3D patient-specific mixed melanoma/node organoids; test: Personalized immunotherapy screening on mixed melanoma/node organoids (live/dead staining and metabolism assays); type: cell-based, human; conditions: fourth patient's mixed melanoma/node organoids; 72 hours
Excerpt: Methods: Surgically obtained matched melanoma and lymph node biospecimens from the same patient were transferred to the laboratory, washed with saline, antibiotic, and red blood cell lysis buffer. Biospecimens were dissociated, and incorporated into an ECM-based hydrogel system and biofabricated into 3D patient-specific mixed melanoma/node organoids. Cells were not sorted for tumor, as to preserve tumor heterogeneity, including stroma and immune cell components. […] Quantification of live/dead staining and metabolism assays, recorded relative drug efficacy in killing melanoma cells for a particular patient. Light microscopy, IHC and next generation sequencing (NGS) were used to compare tumor melanoma cells with organoid melanoma cells.

[3] = tested on: low-grade appendiceal tumor-node organoids; test: LIVE/DEAD imaging of appendiceal tumor organoids with and without node cells; type: cell-based, human; conditions: FIG. 1B; for LIVE/DEAD imaging, drug effectiveness: appendiceal tumor organoids with and without node cells; for cell death (LIVE/DEAD staining): low-grade appendiceal tumor-node organoids
Description: as §1

[4] = tested on: colorectal tumor-node organoids; test: Mitochondrial metabolism of colorectal patient tumor organoids with or without matched lymph node immune cells; type: cell-based, human; conditions: integrated colorectal tumor-node organoids; seen only when immune cells are present; FIG. 1A
Description: as §1, with “markers). […] This was not expected given the BRAF wild status of the patient. […] The alternative therapy was identified by PTO screen more than 4 weeks prior to genomic sequencing that verified a MEK mutation, thus qualifying the patient for trametinib.” for “markers).”

Row | Substance | organoid response (LIVE/DEAD staining) [1] | organoid response (LIVE/DEAD staining) ([1]; listed as dabrafenib and trametinib) | patient clinical response (melanoma) | organoid viability, measured by overall metabolic activity (melanoma tumor organoid) | effect on the PTOs (PTOs) | melanoma killing [2] | LIVE/DEAD imaging, drug effectiveness [3] | cell death (LIVE/DEAD staining) [3] | mitochondrial metabolism [4]
1 | dabrafenib and trametinib [dabrafenic/trametinib] | increased DEAD staining | did respond |  |  |  |  |  |  | 
2 | ipilimumab [ipilumimab] | did not respond |  |  |  |  |  |  |  | 
3 | nivolumab |  |  | clinically progressed | significant decrease | no negative effect | 50% | effective only when immune cell (lymph) population was incorporated | increases in cell death | an increase in mitochondrial metabolism; also recorded: Increased metabolism
4 | pembrolizumab | did not respond |  |  | significant decrease | no negative effect |  | effective only when immune cell (lymph) population was incorporated | increases in cell death | 
